Results from patent publication US20240383913A1, “THIOPHENE RING COMPOUND, PREPARATION METHOD THEREFOR AND APPLICATION THEREOF” (CENTER FOR EXCELLENCE IN MOLECULAR CELL SCIENCE, CHINESE …, priority 2021, published 2024).

Test system: hyperlocomotion of the mice induced by MK801
Experiment: Open field test, hyperlocomotion induced by MK801
Assay type: in vivo, C57B6 male mice
Conditions: for Distance travelled (cm): 5-minute bin
Protocol: Experimental method: The experimental animals were C57B6 male mice, n=8 in each group. This model used C57B6 mice as experimental animals. Hyperlocomotion of the mice in open field was induced by acute injection of a NMDA antagonist MK801. and modeled to test the inhibitory effect of different compounds on hyperkinesia phenotype induced by MK801. All mouse behavior experiments were carried out during the light period, and the whole process was recorded by the camera and locomotive data were tracked and analyzed by behavioral tracking software. The compounds were administered intraperitoneally. Immediately after the injection, the mice entered the open field and their movement trajectories were recorded by the camera. After 30 minutes, the mice received 0.2 mg/kg of MK801 by intraperitoneal injection and returned to the open field immediately after administration and the movement trajectories were further recorded for 120 minutes. The accumulative travelled distance of the mice was counted in a 5-minute bin. Data statistics were performed using Student-t-test analysis, *p<0.05, ** p<0.01, *** p<0.001, **** p<0.0001.

CN(C)C(=O)N[C@H]1CC[C@H](CCN2CCN3c4cccc5scc(c45)CC3C2)CC1 (single isomer, unassigned; (-)) [(−)-I-27]
Distance travelled (cm) ((−)-I-27 0.2 mg/kg i.p. + MK801 0.2 mg/kg, 60 minutes after MK801): 707.09 ± 102.86 cm
Distance travelled (cm) ((−)-I-27 0.2 mg/kg i.p. + MK801 0.2 mg/kg, 65 minutes after MK801): 653.46 ± 142.7 cm
Distance travelled (cm) ((−)-I-27 0.2 mg/kg i.p. + MK801 0.2 mg/kg, 70 minutes after MK801): 449.29 ± 121.61 cm
Distance travelled (cm) ((−)-I-27 0.2 mg/kg i.p. + MK801 0.2 mg/kg, 75 minutes after MK801): 564.58 ± 153.01 cm
Distance travelled (cm) ((−)-I-27 0.2 mg/kg i.p. + MK801 0.2 mg/kg, 80 minutes after MK801): 501.93 ± 119.91 cm
Distance travelled (cm) ((−)-I-27 0.2 mg/kg i.p. + MK801 0.2 mg/kg, 85 minutes after MK801): 471.35 ± 107.44 cm
Distance travelled (cm) ((−)-I-27 0.2 mg/kg i.p. + MK801 0.2 mg/kg, 90 minutes after MK801): 399.78 ± 105.26 cm
Distance travelled (cm) ((−)-I-27 0.2 mg/kg i.p. + MK801 0.2 mg/kg, 95 minutes after MK801): 301.32 ± 70.58 cm
Distance travelled (cm) ((−)-I-27 0.2 mg/kg i.p. + MK801 0.2 mg/kg, 100 minutes after MK801): 268.55 ± 74.28 cm
Distance travelled (cm) ((−)-I-27 0.2 mg/kg i.p. + MK801 0.2 mg/kg, 105 minutes after MK801): 299.24 ± 98.85 cm
Distance travelled (cm) ((−)-I-27 0.2 mg/kg i.p. + MK801 0.2 mg/kg, 110 minutes after MK801): 378.85 ± 88.69 cm
Distance travelled (cm) ((−)-I-27 0.2 mg/kg i.p. + MK801 0.2 mg/kg, 115 minutes after MK801): 236.86 ± 61.21 cm
Distance travelled (cm) ((−)-I-27 0.2 mg/kg i.p. + MK801 0.2 mg/kg, 120 minutes after MK801): 183.04 ± 51.72 cm
Distance travelled (cm) ((−)-I-27 0.2 mg/kg i.p., 0 minutes, before MK801): 426.03 ± 34.51 cm
Distance travelled (cm) ((−)-I-27 0.2 mg/kg i.p., −5 minutes, before MK801): 420.23 ± 44.8 cm
Distance travelled (cm) ((−)-I-27 0.2 mg/kg i.p., −10 minutes, before MK801): 462.71 ± 40.83 cm
Distance travelled (cm) ((−)-I-27 0.2 mg/kg i.p., −15 minutes, before MK801): 534.93 ± 50.26 cm
Distance travelled (cm) ((−)-I-27 0.2 mg/kg i.p., −20 minutes, before MK801): 614.02 ± 31.52 cm
Distance travelled (cm) ((−)-I-27 0.2 mg/kg i.p., −25 minutes, before MK801): 741.08 ± 56.17 cm
Distance (cm) travelled in 45 minutes ((−)-I-27 0.4 mg/kg i.p. + MK801 0.2 mg/kg, 0-45 minute interval after MK-801): 4056.3 cm
Distance travelled (cm) ((−)-I-27 0.4 mg/kg i.p. + MK801 0.2 mg/kg, 5 minutes after MK801): 479.22 ± 57.64 cm
Distance travelled (cm) ((−)-I-27 0.4 mg/kg i.p. + MK801 0.2 mg/kg, 10 minutes after MK801): 277.07 ± 32.68 cm
Distance travelled (cm) ((−)-I-27 0.4 mg/kg i.p. + MK801 0.2 mg/kg, 15 minutes after MK801): 316.03 ± 70.39 cm
Distance travelled (cm) ((−)-I-27 0.4 mg/kg i.p. + MK801 0.2 mg/kg, 20 minutes after MK801): 370.1 ± 75.27 cm
Distance travelled (cm) ((−)-I-27 0.4 mg/kg i.p. + MK801 0.2 mg/kg, 25 minutes after MK801): 403.74 ± 108.16 cm
Distance travelled (cm) ((−)-I-27 0.4 mg/kg i.p. + MK801 0.2 mg/kg, 30 minutes after MK801): 584.67 ± 129.63 cm
Distance travelled (cm) ((−)-I-27 0.4 mg/kg i.p. + MK801 0.2 mg/kg, 35 minutes after MK801): 633.6 ± 143.49 cm
Distance travelled (cm) ((−)-I-27 0.4 mg/kg i.p. + MK801 0.2 mg/kg, 40 minutes after MK801): 483.45 ± 104.6 cm
Distance travelled (cm) ((−)-I-27 0.4 mg/kg i.p. + MK801 0.2 mg/kg, 45 minutes after MK801): 508.42 ± 110.56 cm
Distance travelled (cm) ((−)-I-27 0.4 mg/kg i.p. + MK801 0.2 mg/kg, 50 minutes after MK801): 541.28 ± 85 cm
Distance travelled (cm) ((−)-I-27 0.4 mg/kg i.p. + MK801 0.2 mg/kg, 55 minutes after MK801): 483.29 ± 71.91 cm
Distance travelled (cm) ((−)-I-27 0.4 mg/kg i.p. + MK801 0.2 mg/kg, 60 minutes after MK801): 421.36 ± 61.47 cm
Distance travelled (cm) ((−)-I-27 0.4 mg/kg i.p. + MK801 0.2 mg/kg, 65 minutes after MK801): 371.77 ± 42.78 cm
Distance travelled (cm) ((−)-I-27 0.4 mg/kg i.p. + MK801 0.2 mg/kg, 70 minutes after MK801): 347.51 ± 55.13 cm
Distance travelled (cm) ((−)-I-27 0.4 mg/kg i.p. + MK801 0.2 mg/kg, 75 minutes after MK801): 296.62 ± 78.74 cm
Distance travelled (cm) ((−)-I-27 0.4 mg/kg i.p. + MK801 0.2 mg/kg, 80 minutes after MK801): 244.49 ± 76.54 cm
Distance travelled (cm) ((−)-I-27 0.4 mg/kg i.p. + MK801 0.2 mg/kg, 85 minutes after MK801): 160.39 ± 34.08 cm
Distance travelled (cm) ((−)-I-27 0.4 mg/kg i.p. + MK801 0.2 mg/kg, 90 minutes after MK801): 386.57 ± 158.41 cm
Distance travelled (cm) ((−)-I-27 0.4 mg/kg i.p. + MK801 0.2 mg/kg, 95 minutes after MK801): 201.39 ± 68.43 cm
Distance travelled (cm) ((−)-I-27 0.4 mg/kg i.p. + MK801 0.2 mg/kg, 100 minutes after MK801): 234.28 ± 63.3 cm
Distance travelled (cm) ((−)-I-27 0.4 mg/kg i.p. + MK801 0.2 mg/kg, 105 minutes after MK801): 229.02 ± 63.13 cm
Distance travelled (cm) ((−)-I-27 0.4 mg/kg i.p. + MK801 0.2 mg/kg, 110 minutes after MK801): 210.95 ± 45.58 cm
Distance travelled (cm) ((−)-I-27 0.4 mg/kg i.p. + MK801 0.2 mg/kg, 115 minutes after MK801): 323.92 ± 121.74 cm
Distance travelled (cm) ((−)-I-27 0.4 mg/kg i.p. + MK801 0.2 mg/kg, 120 minutes after MK801): 324.23 ± 68.48 cm
Distance travelled (cm) ((−)-I-27 0.4 mg/kg i.p., 0 minutes, before MK801): 441.97 ± 55.83 cm
Distance travelled (cm) ((−)-I-27 0.4 mg/kg i.p., −5 minutes, before MK801): 317.51 ± 24.51 cm
Distance travelled (cm) ((−)-I-27 0.4 mg/kg i.p., −10 minutes, before MK801): 419.17 ± 56.13 cm
Distance travelled (cm) ((−)-I-27 0.4 mg/kg i.p., −15 minutes, before MK801): 374.1 ± 25.44 cm
Distance travelled (cm) ((−)-I-27 0.4 mg/kg i.p., −20 minutes, before MK801): 475.66 ± 9.82 cm
Distance travelled (cm) ((−)-I-27 0.4 mg/kg i.p., −25 minutes, before MK801): 903.06 ± 46.43 cm
